Measurements reported in US7473708B2, “Agents with leukotriene B4-like antiviral (enveloped RNA) activities” (priority 1996, dated 2009).
“Also recorded” adds a separate entry of the source.

What was measured:
[1] = test system: cell cultures of Examples I and II; experiment: LTB4 cytotoxicity, trypan blue dye exclusion test; type: cell-based, human; conditions: concentrations up to 30 nM
Procedure: In cell cultures described in Examples I and II, the cytotoxic effect of LTB4 was assessed by the trypan blue dye exclusion test at concentrations up to 30 nM. […] Cell viability was assessed by the trypan blue exclusion test; values (from 1 experiment representative of 3) represent the mean cell viability in cell cultures (n=24).

[2] = test system: influenza virus (strain A/Pr/8/34); experiment: Influenza infection in lungs of mice; type: in vivo; conditions: LTB4 1, 10 and 100 ng/dose intranasal, days 1 to 5, day 6
Procedure: BALB/c mice (6-8 week old) were infected (n=6/group) by delivering 10 PFU of influenza virus (strain A/Pr/8/34) in the nasal cavity. On days 1 to 5 post-infection, mice were treated intranasally with a placebo or with varying doses of LTB4 (1, 10 and 100 ng/dose). On the 6th day post-infection, all mice were sacrificed and influenza viral loads in lungs were determined using the MDCK cell line.

[3] = test system: coronavirus strain HCoV-OC43; experiment: Human coronavirus infection in lungs of mice; type: in vivo; conditions: for coronavirus viral load in lungs, per mouse: day 6
Procedure: The antiviral effect of LTB4 in controlling pneumonia caused by coronavirus was evaluated in an in vivo model using C57BL/6 mice (8 day old). Mice were infected (n=6/group) intranasally with 10 μl of coronavirus suspension (10^4 PFU, strain HCoV-OC43). Twenty-four hours post-infection, mice were treated intranasally with a placebo or with varying doses of LTB4 (5 ng/dose or 50 ng/dose). Mice were treated once a day during 5 days, and were sacrificed and autopsied on day 6. Lungs of mice were surgically removed and the viral load was titrated on HRT-18 cell line.

EBV [4] = experiment: Synthesis of EBV particles in B95-8 cells; conditions: for inhibition of production of EBV particles (decrease of EBNA antigen positive cells): 14 days
Procedure: In order to evaluate the effects of LTB4 on the production of newly synthesized viral particles, B95-8 cells, in which EBV replicates, was cultured in the presence or absence of LTB4 (to the concentrations indicated in FIG. 3 at days 0, 5 and 10) during 14 days. The cells were grown in RPMI-1640 medium supplemented with 10% heat inactivated fetal bovine serum (FBS) . […] Viral titers were measured by ACIF test on PBMC and expressed in transforming units per ml (TFU/ml). PBMC were then infected with these different EBV preparations and the presence of EBNA was assessed by immunofluorescence (ACIF test).

HSV-1 = experiment: Synthesis of HSV-1 particles in Vero cells; conditions: concentration not stated (summary)
EBV [5] = experiment: Detection of Epstein-Barr Nuclear Antigen (EBNA) in EBV-infected PBMC (ACIF test); type: cell-based, human; conditions: 100 nM LTB4, added days 0, 3, 6, 9; ten days of culture
Procedure: After ten days of culture, cells were harvested for determination of the presence of Epstein-Barr Nuclear Antigen (EBNA), a consequence of EBV infection. Preparation of cell smears, fixation and detection of EBNA by the anti-complement immunofluorescence (ACIF) test were carried out as described by Reedman B. M. and Klein G. (Int. J. Cancer, 1973, 11:499). Smears were prepared by spreading 50 μl of a concentrated suspension of washed cells (2×10^6/ml) on clean slides, air dried and fixed in cold acetone (−20° C.) during 10 minutes. Human serum (50 μl) from EBV seropositive donor was used as a source of complement. Slides were incubated at room temperature in a humid chamber during 45 minutes. Slides were then washed three times in phosphate buffer saline (PBS) and stained with 50 μl of fluorescein-5-isothiocyanate (FITC “Isomer I”)-conjugated goat IgG fraction anti-human complement C3 (Cappel Research Products, Durham, N.C.) during 60 minutes at room temperature in a humid chamber. Slides were washed in PBS (3 times), mounted in PBS:glycerol 1:1 and examined. Raji and U937 cells were used as positive and negative controls, respectively. The percentage of EBNA-positive cells was decreased by more than 55% with 30 nM LTB4, and by more than 70% with 100 nM LTB4 (FIG. 2). The results illustrated in FIG. 2 are representative of six (6) other experiments.
PBMC were infected with EBV and HSV-1 and treated or not with 100 nM of analogs of LTB4 such as 20-OH-LTB4, LTA3 methyl ester, 12(R)-HETE and 5(S), 15(S)-diHETE. After six days of culture, the presence of EBNA antigen (a consequence of EBV infection) was evaluated by the ACIF test, as described in Example I. Similarly, the presence of HSV-1 antigen in PBMC was evaluated by immunofluorescence using an antiserum obtained from a chronically infected donor as described above in section entitled “Detection of Specific HSV-1 Antigen”. […] The results illustrated in Table 1 are representative of three other experiments.

[6] = test system: murine CMV (Smith strain); experiment: CMV viral load in infected mice (plaque assay)
Procedure: Six week old BALB/c mice were infected by intravenous injection with 10^4 plaque forming units (PFU) of murine CMV (Smith strain). Mice were divided into two groups: the first group received a placebo while the second group was treated with 25 ng of LTB4, administered intravenously once a day starting on the day of infection. After 12 days of treatment, mice were sacrificed and the lungs and salivary glands harvested. The organs were homogenized, in 0.5 ml of culture medium, to liberate intracellular viral particles. After centrifugation, the cell free supernatants were tested for the presence of CMV particles by standard plaque assay technique. Briefly, serially diluted supernatants were added to a monolayer of mouse embryonic fibroblast cells (highly susceptible to CMV infection) for 1 hour at 37° C. after which the nonadsorbed virus were removed and the monolayer overlaid with 1.5% methylcellulose. After a 5-day incubation, the monolayers were fixed with formaldehyde and stained with violet crystal. The number of plaques, which represents areas of infection equivalent to one viral particle, were counted and the CMV titers in the lungs and salivary glands determined.

HIV (93US151) = experiment: HIV infection in vivo, SCID mice reconstituted with human PBMC
HIV-1 strain 89.6 = experiment: HIV ex vivo model, human tonsillar tissue, p24 release; type: cell-based; conditions: tonsil blocks, LTB4 0.01, 0.1 and 1 μM
Description: An ex vivo model that retains the cellular organization found in normal human lymphoid tissue was used. The selected lymphoid tissues were tonsils. […] Such an ex vivo model is used to study HIV pathogenesis and potency of antiviral agents such as AZT (Zidovudine) by many laboratories.
Human tonsillar tissues from two different individuals were removed during routine tonsillectomy and were received within five hours of excision. The tonsils were washed thoroughly with medium supplemented with antibiotics and then sectioned into 2-3 mm blocks. These tissue blocks were placed in culture medium at the air-liquid interface on the top surface of collagen sponge gels and were pretreated for 10 min with the indicated concentrations of LTB4 (0.01, 0.1 and 1 μM). Next, HIV-1 particles (400 TCID50 of HIV-1 strain 89.6) were applied at the top of each tissue block. The next day, the culture medium was completely removed and replaced with fresh medium supplemented with a final concentration of LTB4 (0.01, 0.1 and 1 μM). This step is necessary in order to remove unadsorbed and uninternalized virus particles. Productive HIV-1 infection was assessed every 3 to 4 days by measuring p24 in the culture medium using a viral core p24 antigen enzyme-linked immunosorbent assay. […]

EBV, strain B95-8 = experiment: EBV-induced clump formation in peripheral blood mononuclear cells; type: cell-based, human; conditions: EBV-infected PBMC, ten to twelve days of culture
Procedure: Peripheral blood mononuclear cells (PBMC) were obtained from healthy donors after dextran sedimentation and centrifugation on Ficoll-Paque™ gradients as previously described by Boyum A. (Scand. J. Immunol., 1976, 5(5):9). […] When indicated, EBV-infected PBMC were simultaneously treated (single addition) with different concentrations of LTB4, i.e. 0.3, 3.0 and 30 nM, respectively. […] Cells were cultured in microplates and the clumps were counted in each well. […] NS: nonstimulated cells.

[7] = 25 ng LTB4 i.v. once a day, 12 days

`CCCCC/C=C\C[C@@H](O)/C=C/C=C/C=C\[C@@H](O)CCCC(=O)O` [LTB4, 5S,12R-dihydroxy-6,8,10,14 (Z,E,E,Z)-eicosatetraenoic acid] was tested, and the “cytotoxic effect / cell viability” value [1] was “no direct cytotoxic effect”, the “influenza titers in the lungs versus placebo” value [2] was “significantly decreased; also recorded: reduced” and the “coronavirus viral load in lungs, per mouse” value ([3]; LTB4 5 ng/dose/mouse intranasal once a day 5 days) was “N.D. (below detection limit of 32 TCID50/lungs)”. For the same compound, the “coronavirus viral load in lungs, per mouse” value ([3]; LTB4 50 ng/dose/mouse intranasal once a day 5 days) was “N.D. (below detection limit of 32 TCID50/lungs)”, the “number of coronavirus particles in lungs versus placebo” value ([3]; infected mice) was “significantly reduces; also recorded: reduced” and the “inhibition of production of EBV particles (decrease of EBNA antigen positive cells)” value (EBV [4]; 30 nM LTB4, B95-8 cells) was 70%. The “inhibition of production of EBV particles (decrease of EBNA antigen positive cells)” value (EBV [4]; 100 nM LTB4, B95-8 cells) was 85%, the “inhibition of formation of new EBV particles” value (EBV [4]; B95-8 cells, concentration not stated (summary)) was over 80% and the “inhibition of formation of new HSV-1 particles” value (HSV-1) was 75%. The “decrease of percentage of EBNA-positive cells” value (EBV [5]) was “more than 70%”, the “reduction in the CMV viral load in the lungs versus placebo” value [6, 7] was 77% and the “reduction in the CMV viral load in the salivary glands versus placebo” value [6, 7] was 70%. The “CMV viral load versus placebo” value ([6]; infected mice) was “reduced”, the “percentage of CD4+ T cell survival versus placebo” value (HIV (93US151); LTB4 1, 10 or 100 ng/mouse i.p. once a day, day 14 P.I.) was “significantly increased” and the “HIV plasma viral loads versus placebo” value (HIV (93US151); LTB4 i.p. once a day, days 7 and 14 P.I.) was “reduced”. For the same compound, the “inhibition of the replicative cycle of HIV-1 (p24 release)” value (HIV-1 strain 89.6) was “more than 75%” and the formation of clumps (EBV, strain B95-8) was “markedly affected the formation of clumps”.
